Where two headings read alike, the source gives them in different places.
Tested on: patients with advanced metastatic cancer
Text: In this phase 1 study, dose escalation was followed by expansion cohorts of once-daily, oral M2698 in continuous 21-day cycles. Primary objectives were to determine the maximum tolerated dose (MTD), dose-limiting toxicities (DLTs), and recommended phase 2 dose (RP2D). Secondary objectives were to assess safety and tolerability, pharmacokinetics (PK, including food effect) and antitumor activity. Pharmacodynamic biomarker assessments were exploratory. Treatment was discontinued if there was disease progression, toxicity or consent withdrawal.
In Part 1, M2698 monotherapy was investigated in a dose escalation with a food effect cohort. In Part 2, M2698 was investigated as monotherapy (expansion cohort) to further characterize safety, tolerability and pharmacokinetics, and assess antitumor activity in PAM + patients without confounding markers (exploratory).
Dose escalation analysis included all patients who experienced a DLT and those who received ≥ 80% of planned M2698 doses in cycle 1 without experiencing a DLT. Safety analysis included all patients who received ≥ 1 dose of M2698. PK analysis included all patients who received ≥ 1 dose of M2698 and had measurable plasma concentrations. Dose proportionality was tested using the power model (linear regression approach on the log -transformed scale).

`NC(=O)c1cccc2c(N[C@H](CN3CCC3)c3ccc(Cl)c(C(F)(F)F)c3)ncnc12` [M2698] was tested, and the “M2698-related TEAE: Mucosal inflammation” value (110 mg n=4) was 0, the “M2698-related TEAE: Nausea” value (110 mg n=4) was 1 and the “M2698-related TEAE: Nervous system disorders” value (110 mg n=4) was 0. For the same molecule, the “M2698-related TEAE: Nightmare” value (110 mg n=4) was 0, the “M2698-related TEAE: Onychomadesis” value (110 mg n=4) was 0 and the “M2698-related TEAE: Paranoia” value (110 mg n=4) was 0. The “M2698-related TEAE: Photosensitivity reaction” value (110 mg n=4) was 0, the “M2698-related TEAE: Posterior reversible encephalopathy syndrome” value (110 mg n=4) was 0 and the “M2698-related TEAE: Pruritus generalised” value (110 mg n=4) was 0. For the same molecule, the “M2698-related TEAE: Psychiatric disorders” value (110 mg n=4) was 0, the “M2698-related TEAE: Rash” value (110 mg n=4) was 0 and the “M2698-related TEAE: Rash maculo-papular” value (110 mg n=4) was 0. For the same molecule, the “M2698-related TEAE: Skin and subcutaneous tissue disorders” value (110 mg n=4) was 0, the “M2698-related TEAE: Subjects with at least one event” value (110 mg n=4) was 1 and the “M2698-related TEAE: Transaminases increased” value (110 mg n=4) was 0. The “M2698-related TEAE: Tremor” value (110 mg n=4) was 0, the “M2698-related TEAE: Vision blurred” value (110 mg n=4) was 0 and the “M2698-related TEAE: Vomiting” value (110 mg n=4) was 0. For the same molecule, the “M2698-related TEAE: White blood cell count decreased” value (110 mg n=4) was 0, the “M2698-related TEAE: Abnormal dreams” value (160 mg n=6) was 1 and the “M2698-related TEAE: Affect lability” value (160 mg n=6) was 0. The “M2698-related TEAE: Alanine aminotransferase increased” value (160 mg n=6) was 0, the “M2698-related TEAE: Amylase increased” value (160 mg n=6) was 0 and the “M2698-related TEAE: Anaemia” value (160 mg n=6) was 0. For the same molecule, the “M2698-related TEAE: Angina pectoris” value (160 mg n=6) was 0, the “M2698-related TEAE: Anxiety” value (160 mg n=6) was 0 and the “M2698-related TEAE: Aphasia” value (160 mg n=6) was 0. For the same molecule, the “M2698-related TEAE: Ataxia” value (160 mg n=6) was 0, the “M2698-related TEAE: Blood and lymphatic system disorders” value (160 mg n=6) was 1 and the “M2698-related TEAE: Blood creatine phosphokinase increased” value (160 mg n=6) was 0. The “M2698-related TEAE: Blood creatinine increased” value (160 mg n=6) was 0, the “M2698-related TEAE: Cardiac disorders” value (160 mg n=6) was 0 and the “M2698-related TEAE: Cognitive disorder” value (160 mg n=6) was 0. The “M2698-related TEAE: Constipation” value (160 mg n=6) was 0, the “M2698-related TEAE: Decreased appetite” value (160 mg n=6) was 0 and the “M2698-related TEAE: Delusion” value (160 mg n=6) was 0. For the same molecule, the “M2698-related TEAE: Depression” value (160 mg n=6) was 0, the “M2698-related TEAE: Diarrhoea” value (160 mg n=6) was 0 and the “M2698-related TEAE: Diarrhoea haemorrhagic” value (160 mg n=6) was 0. The “M2698-related TEAE: Dizziness” value (160 mg n=6) was 0, the “M2698-related TEAE: Dry eye” value (160 mg n=6) was 1 and the “M2698-related TEAE: Dry mouth” value (160 mg n=6) was 1. For the same molecule, the “M2698-related TEAE: Dysgeusia” value (160 mg n=6) was 1, the “M2698-related TEAE: Dyspepsia” value (160 mg n=6) was 0 and the “M2698-related TEAE: Dysphagia” value (160 mg n=6) was 1. The “M2698-related TEAE: Energy increased” value (160 mg n=6) was 1, the “M2698-related TEAE: Erythema” value (160 mg n=6) was 1 and the “M2698-related TEAE: Euphoric mood” value (160 mg n=6) was 1. For the same molecule, the “M2698-related TEAE: Eye disorders” value (160 mg n=6) was 1, the “M2698-related TEAE: Fatigue” value (160 mg n=6) was 0 and the “M2698-related TEAE: Gamma-glutamyltransferase increased” value (160 mg n=6) was 1. The “M2698-related TEAE: Gastrointestinal disorders” value (160 mg n=6) was 1, the “M2698-related TEAE: Gastrooesophageal reflux disease” value (160 mg n=6) was 0 and the “M2698-related TEAE: General disorders and administration site conditions” value (160 mg n=6) was 1. For the same molecule, the “M2698-related TEAE: Headache” value (160 mg n=6) was 0, the “M2698-related TEAE: Hyperhidrosis” value (160 mg n=6) was 0 and the “M2698-related TEAE: Hypokalaemia” value (160 mg n=6) was 0. The “M2698-related TEAE: Hypomagnesaemia” value (160 mg n=6) was 0, the “M2698-related TEAE: Insomnia” value (160 mg n=6) was 1 and the “M2698-related TEAE: Investigations” value (160 mg n=6) was 3. The “M2698-related TEAE: Lipase increased” value (160 mg n=6) was 0, the “M2698-related TEAE: Lymphopenia” value (160 mg n=6) was 1 and the “M2698-related TEAE: Metabolism and nutrition disorders” value (160 mg n=6) was 0. The “M2698-related TEAE: Mucosal inflammation” value (160 mg n=6) was 0, the “M2698-related TEAE: Nausea” value (160 mg n=6) was 0 and the “M2698-related TEAE: Nervous system disorders” value (160 mg n=6) was 1. For the same molecule, the “M2698-related TEAE: Nightmare” value (160 mg n=6) was 0, the “M2698-related TEAE: Onychomadesis” value (160 mg n=6) was 0 and the “M2698-related TEAE: Paranoia” value (160 mg n=6) was 0. The “M2698-related TEAE: Photosensitivity reaction” value (160 mg n=6) was 0, the “M2698-related TEAE: Posterior reversible encephalopathy syndrome” value (160 mg n=6) was 0 and the “M2698-related TEAE: Pruritus generalised” value (160 mg n=6) was 0. For the same molecule, the “M2698-related TEAE: Psychiatric disorders” value (160 mg n=6) was 2, the “M2698-related TEAE: Rash” value (160 mg n=6) was 1 and the “M2698-related TEAE: Rash maculo-papular” value (160 mg n=6) was 0. The “M2698-related TEAE: Skin and subcutaneous tissue disorders” value (160 mg n=6) was 2, the “M2698-related TEAE: Subjects with at least one event” value (160 mg n=6) was 4 and the “M2698-related TEAE: Transaminases increased” value (160 mg n=6) was 1. The “M2698-related TEAE: Tremor” value (160 mg n=6) was 0, the “M2698-related TEAE: Vision blurred” value (160 mg n=6) was 0 and the “M2698-related TEAE: Vomiting” value (160 mg n=6) was 0. For the same molecule, the “M2698-related TEAE: White blood cell count decreased” value (160 mg n=6) was 1, the DLT observed (160 mg, n = 1) was “grade 3 increase in gamma-glutamyltransferase” and the “M2698-related TEAE: Abnormal dreams” value (200 mg n=3) was 0. For the same molecule, the “M2698-related TEAE: Affect lability” value (200 mg n=3) was 0, the “M2698-related TEAE: Alanine aminotransferase increased” value (200 mg n=3) was 0 and the “M2698-related TEAE: Amylase increased” value (200 mg n=3) was 0. The “M2698-related TEAE: Anaemia” value (200 mg n=3) was 1, the “M2698-related TEAE: Angina pectoris” value (200 mg n=3) was 0 and the “M2698-related TEAE: Anxiety” value (200 mg n=3) was 0. For the same molecule, the “M2698-related TEAE: Aphasia” value (200 mg n=3) was 0, the “M2698-related TEAE: Ataxia” value (200 mg n=3) was 0 and the “M2698-related TEAE: Blood and lymphatic system disorders” value (200 mg n=3) was 1. For the same molecule, the “M2698-related TEAE: Blood creatine phosphokinase increased” value (200 mg n=3) was 0, the “M2698-related TEAE: Blood creatinine increased” value (200 mg n=3) was 0 and the “M2698-related TEAE: Cardiac disorders” value (200 mg n=3) was 0. For the same molecule, the “M2698-related TEAE: Cognitive disorder” value (200 mg n=3) was 0, the “M2698-related TEAE: Constipation” value (200 mg n=3) was 0 and the “M2698-related TEAE: Decreased appetite” value (200 mg n=3) was 1.
